Test results: ChEMBL document CHEMBL2062478, “Targeted kinase selectivity from kinase profiling data” (ACS Med Chem Lett, 2012)
pKi: −log10 of the molar value.

Experiments:
[1] = target: Tyrosine-protein kinase Lck (Homo sapiens, UniProt P06239); experiment: Inhibition of LCK
[2] = target: Epidermal growth factor receptor (Homo sapiens, UniProt P00533); experiment: Inhibition of EGFR
[3] = target: Platelet-derived growth factor receptor alpha (Homo sapiens, UniProt P16234); experiment: Inhibition of PDGFRA
Sequence of Platelet-derived growth factor receptor alpha (P16234 whole entry): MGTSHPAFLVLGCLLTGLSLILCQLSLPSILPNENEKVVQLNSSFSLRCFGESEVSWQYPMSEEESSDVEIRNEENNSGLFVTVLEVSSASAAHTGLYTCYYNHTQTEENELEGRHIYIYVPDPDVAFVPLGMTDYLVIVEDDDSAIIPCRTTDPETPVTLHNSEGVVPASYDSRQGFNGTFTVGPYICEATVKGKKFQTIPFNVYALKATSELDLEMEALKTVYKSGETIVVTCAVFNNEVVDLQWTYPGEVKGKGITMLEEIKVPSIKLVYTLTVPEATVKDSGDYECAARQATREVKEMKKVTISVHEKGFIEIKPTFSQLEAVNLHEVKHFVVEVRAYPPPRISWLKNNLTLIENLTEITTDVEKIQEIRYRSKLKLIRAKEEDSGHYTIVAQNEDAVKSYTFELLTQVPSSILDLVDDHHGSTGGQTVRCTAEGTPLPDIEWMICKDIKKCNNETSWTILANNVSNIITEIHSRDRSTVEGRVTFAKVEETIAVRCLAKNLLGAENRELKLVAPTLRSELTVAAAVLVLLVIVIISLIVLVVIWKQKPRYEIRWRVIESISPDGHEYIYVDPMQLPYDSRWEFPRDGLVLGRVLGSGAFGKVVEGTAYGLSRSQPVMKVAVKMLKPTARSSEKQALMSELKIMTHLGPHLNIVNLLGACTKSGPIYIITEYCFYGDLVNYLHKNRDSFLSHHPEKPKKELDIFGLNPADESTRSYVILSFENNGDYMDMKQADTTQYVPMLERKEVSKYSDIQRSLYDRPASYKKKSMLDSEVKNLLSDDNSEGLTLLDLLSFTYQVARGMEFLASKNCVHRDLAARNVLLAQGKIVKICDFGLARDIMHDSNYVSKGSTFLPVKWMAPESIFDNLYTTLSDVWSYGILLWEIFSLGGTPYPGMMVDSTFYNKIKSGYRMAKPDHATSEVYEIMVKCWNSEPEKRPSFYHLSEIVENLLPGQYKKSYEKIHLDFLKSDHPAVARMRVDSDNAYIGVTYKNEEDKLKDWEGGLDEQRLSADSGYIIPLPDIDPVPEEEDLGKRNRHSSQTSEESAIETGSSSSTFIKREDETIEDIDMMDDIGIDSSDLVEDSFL

[4] = target: Cell division cycle 7-related protein kinase (Homo sapiens, UniProt O00311); experiment: Inhibition of CDC7
Sequence of Cell division cycle 7-related protein kinase (O00311 whole entry): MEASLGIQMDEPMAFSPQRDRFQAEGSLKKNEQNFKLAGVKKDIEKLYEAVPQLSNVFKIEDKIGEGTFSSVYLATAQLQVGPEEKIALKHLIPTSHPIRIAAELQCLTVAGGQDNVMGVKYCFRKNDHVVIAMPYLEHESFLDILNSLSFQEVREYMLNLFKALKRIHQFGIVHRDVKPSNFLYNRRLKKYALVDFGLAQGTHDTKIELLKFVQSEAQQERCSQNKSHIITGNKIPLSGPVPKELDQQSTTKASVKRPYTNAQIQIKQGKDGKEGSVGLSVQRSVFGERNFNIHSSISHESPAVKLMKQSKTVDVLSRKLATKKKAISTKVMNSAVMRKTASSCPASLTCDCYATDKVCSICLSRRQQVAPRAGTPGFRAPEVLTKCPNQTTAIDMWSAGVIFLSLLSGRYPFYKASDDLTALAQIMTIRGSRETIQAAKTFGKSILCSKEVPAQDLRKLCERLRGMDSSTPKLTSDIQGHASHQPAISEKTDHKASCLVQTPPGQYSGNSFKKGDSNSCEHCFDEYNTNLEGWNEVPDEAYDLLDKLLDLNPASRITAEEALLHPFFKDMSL

[5] = target: Cyclin-dependent kinase 1 (Homo sapiens, UniProt P06493); experiment: Inhibition of CDC2
Sequence of Cyclin-dependent kinase 1 (P06493 whole entry): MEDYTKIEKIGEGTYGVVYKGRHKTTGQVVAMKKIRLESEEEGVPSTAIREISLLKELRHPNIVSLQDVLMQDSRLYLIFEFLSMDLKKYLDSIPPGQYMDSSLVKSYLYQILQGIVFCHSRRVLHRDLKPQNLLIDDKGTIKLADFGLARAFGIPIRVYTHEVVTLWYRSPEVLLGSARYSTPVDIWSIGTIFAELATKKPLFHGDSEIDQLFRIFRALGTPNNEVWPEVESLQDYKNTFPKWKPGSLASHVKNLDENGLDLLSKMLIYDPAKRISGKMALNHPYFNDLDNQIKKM

Sequence of Tyrosine-protein kinase Lck (P06239 whole entry): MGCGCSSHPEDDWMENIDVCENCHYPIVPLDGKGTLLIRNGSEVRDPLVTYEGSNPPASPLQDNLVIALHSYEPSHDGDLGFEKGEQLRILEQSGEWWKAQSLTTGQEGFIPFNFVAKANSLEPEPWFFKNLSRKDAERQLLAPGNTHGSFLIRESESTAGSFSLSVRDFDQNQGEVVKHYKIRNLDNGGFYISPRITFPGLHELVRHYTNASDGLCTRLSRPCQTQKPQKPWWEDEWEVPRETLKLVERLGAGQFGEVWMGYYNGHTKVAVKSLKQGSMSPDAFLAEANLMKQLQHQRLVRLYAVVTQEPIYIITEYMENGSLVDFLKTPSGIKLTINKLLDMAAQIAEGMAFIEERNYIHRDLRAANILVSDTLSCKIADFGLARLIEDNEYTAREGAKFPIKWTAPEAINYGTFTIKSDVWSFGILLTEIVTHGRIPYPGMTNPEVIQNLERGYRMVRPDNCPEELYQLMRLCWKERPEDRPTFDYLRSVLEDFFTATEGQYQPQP
Sequence of Epidermal growth factor receptor (P00533 whole entry): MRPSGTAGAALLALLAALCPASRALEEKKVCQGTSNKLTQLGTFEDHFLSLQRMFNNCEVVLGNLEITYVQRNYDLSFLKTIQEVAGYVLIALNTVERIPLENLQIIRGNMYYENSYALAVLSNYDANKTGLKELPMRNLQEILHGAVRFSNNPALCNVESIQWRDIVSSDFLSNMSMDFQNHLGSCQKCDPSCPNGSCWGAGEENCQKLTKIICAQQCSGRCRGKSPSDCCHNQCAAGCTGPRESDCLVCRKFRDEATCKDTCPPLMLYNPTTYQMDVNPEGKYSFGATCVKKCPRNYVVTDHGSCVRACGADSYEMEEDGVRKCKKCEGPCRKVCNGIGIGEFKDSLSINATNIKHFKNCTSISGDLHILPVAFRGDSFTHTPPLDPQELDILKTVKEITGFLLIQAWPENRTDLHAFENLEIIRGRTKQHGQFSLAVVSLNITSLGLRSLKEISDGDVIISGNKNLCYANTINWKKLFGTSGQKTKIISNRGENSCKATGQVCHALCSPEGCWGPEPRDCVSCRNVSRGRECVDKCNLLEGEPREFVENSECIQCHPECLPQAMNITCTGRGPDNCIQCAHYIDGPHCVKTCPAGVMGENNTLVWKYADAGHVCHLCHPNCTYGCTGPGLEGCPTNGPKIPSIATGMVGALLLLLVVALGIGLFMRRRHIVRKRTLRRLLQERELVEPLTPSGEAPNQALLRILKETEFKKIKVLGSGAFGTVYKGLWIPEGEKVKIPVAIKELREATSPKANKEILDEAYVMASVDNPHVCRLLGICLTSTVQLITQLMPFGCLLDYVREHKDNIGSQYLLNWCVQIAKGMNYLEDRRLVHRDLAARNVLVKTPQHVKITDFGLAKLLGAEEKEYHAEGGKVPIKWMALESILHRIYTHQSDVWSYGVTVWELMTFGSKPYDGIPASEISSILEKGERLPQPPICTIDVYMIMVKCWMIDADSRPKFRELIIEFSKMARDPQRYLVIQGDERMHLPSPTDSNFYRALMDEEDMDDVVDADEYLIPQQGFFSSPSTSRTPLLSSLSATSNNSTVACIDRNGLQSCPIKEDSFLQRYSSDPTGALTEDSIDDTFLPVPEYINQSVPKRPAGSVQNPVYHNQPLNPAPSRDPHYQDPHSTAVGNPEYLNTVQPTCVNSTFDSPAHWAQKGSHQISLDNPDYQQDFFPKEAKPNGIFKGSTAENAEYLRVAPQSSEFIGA

Row | pKi [3] | pKi [5] | Structure (SMILES) | other results
1 | < 5.00 |  | CC(C)(C(N)=O)n1cc(-c2cnc(N)c3c(-c4ccc(NC(=O)Nc5cccc(F)c5)cc4)csc23)cn1 | 
2 |  | 7.40 | O[C@H]1CC[C@H](Nc2nc(Cl)cc(-c3c[nH]c4ncccc34)n2)CC1 | pKi [4]: 9.80

More lines, now with the values behind:

Row | Structure (SMILES) | pKi [3] | pKi [5] | other results
3 | O=C(Cc1ccccc1)Nc1cc(-c2nc3sccn3c2-c2ccnc(Nc3ccc(N4CCOCC4)cc3)n2)ccc1Cl |  |  | pKi [1]: 7.10; pKi [2]: < 5.00
4 | Cc1cccc(NC(=O)Nc2ccc(-c3csc4c(C#CC(C)(C)N)cnc(N)c34)cc2)c1 | < 5.00 |  | 
5 | CN(C)[C@H]1CC[C@H](Nc2nc(Cl)cc(-c3c[nH]c4ncccc34)n2)CC1 |  | < 5.00 | pKi [4]: 9.50
6 | O=C(Nc1n[nH]c2ccc(-c3cn(Cc4ccccc4)nn3)cc12)c1cccc(Cl)c1 |  | < 5.00 | 
7 | C[C@@H](O)Cn1cc(-c2cnc(N)c3c(-c4ccc(NC(=O)Nc5cccc(F)c5)cc4)csc23)cn1 | < 5.00 |  | 
